From patent US20230330041A1, “APPLICATION OF TRIS (HYDROXYMETHYL) AMINOMETHANE PHARMACEUTICALLY ACCEPTABLE SALT TO DRUGS FOR TREATING […]” (BEIJING CHANGSHENG PHARMACEUTICAL TECHNOLOGY CO., LTD., priority 2020, published 2023)
Where two headings read alike, the source gives them in different places.

Legend:
[1] = 36.5° C., 60 rpm
Description: Experimental materials were as follows: a. uric acid (crystal); b.
Background: An assumption was set that a 60 kg hyperuricemic patient with a total blood volume of 4500 ml has 7 mg of uric acid dissolved in 100 ml of blood and 3 mg of uric acid crystals in 100 ml of blood.

[2] = tested on: uric acid crystals in rat kidneys; details: for kidney weight / serum uric acid: day 5; for kidneys observed with obvious radial white lines (uric acid crystal deposition): 5 days
Description: Except for the normal control group, the other groups were intraperitoneally injected with 300 mg/kg of potassium oteronate and intragastrically perfused with 300 mg/kg of hypoxanthine, and the volume of injection and intragastrical perfusion were 5 ml/kg respectively. The normal control group was administered with the same volume of 0.5% CMC-Na, and the model was established at 0.5 h after the second administration every day with once a day and for five consecutive days. […] The normal and model control groups were administered with the same volume of 0.5% CMC-Na by gastric perfusion.
On the 4th day of the test, the rats were fasted overnight (about 16 h). On the 5th day of the test, the rats were weighed and anesthetized by intraperitoneal injection of 60 mg/kg sodium pentobarbital, with an injection volume of 2 ml/kg. About 0.7 mL of blood was collected from the orbit and then the kidney was removed. The whole blood was centrifuged at 6000 r/min for 10 min, the supernatant was taken and stored at -20° C. for keeping the blood uric acid content to be determined. The kidney was weighed, opened to observe the deposition of uric acid crystals in white radial pattern, and stored at -70° C. for future use.
Uric acid content determination: After the serum was rapidly remelted, the uric acid content was determined according to the method specified in the instructions for use, and the serum uric acid content was calculated.
Data processing: The data were expressed as mean ± standard deviation (x ± SD) and analyzed with SPSS 25.0 software. One-Way ANOVA was used for comparison among multiple groups. LSD test was used for homogeneity of variance, where P <0.05 was considered as statistically significant.

[3] = 50 mg sodium urate in 35 ml of 0.3 mol/L solution pH 7.4±0.5, 36.5° C., 4 hours, 60 rpm

`Cl.NC(CO)(CO)CO` [Changsheng No. 1, trimethylol aminomethane hydrochloride] gave a Dissolving time ([1]; test 1: 0.3 mol/L, 0.5 ml/kg (30 ml), 7 mg dissolved + 3 mg crystalized uric acid per 100 ml) of 4 h, a Dissolving time ([1]; test 2: 0.3 mol/L, 1.0 ml/kg (60 ml), 7 mg dissolved + 3 mg crystalized uric acid per 100 ml) of 2 h and a Dissolving time ([1]; test 3: 0.3 mol/L, 1.5 ml/kg (90 ml), 7 mg dissolved + 3 mg crystalized uric acid per 100 ml) of 2 h. For the same compound, the Dissolving time ([1]; test 4: 0.3 mol/L, 2.0 ml/kg (120 ml), 7 mg dissolved + 3 mg crystalized uric acid per 100 ml) was 0.5 h, the Dissolving time ([1]; test 5: 0.3 mol/L, 3.0 ml/kg (180 ml), 7 mg dissolved + 3 mg crystalized uric acid per 100 ml) was 0.5 h and the Dissolving time ([1]; test 6: 0.6 mol/L, 0.5 ml/kg (30 ml), 7 mg dissolved + 8 mg crystalized uric acid per 100 ml) was 4 h. The Dissolving time ([1]; test 7: 0.6 mol/L, 1.0 ml/kg (60 ml), 7 mg dissolved + 8 mg crystalized uric acid per 100 ml) was 2 h, the Dissolving time ([1]; test 8: 0.6 mol/L, 1.5 ml/kg (90 ml), 7 mg dissolved + 8 mg crystalized uric acid per 100 ml) was 0.5 h and the “uric acid crystal deposition in the kidney, dose dependence” value ([2]; 0.85-3.40 g/kg, solution at pH 7.4) was “dose-dependently reduced”. The kidney weight ([2]; 0.85 g/kg) was 2.636 ± 0.491 g, the serum uric acid ([2]; 0.85 g/kg) was 976.91 ± 172.29 µmol/L and the “kidneys observed with obvious radial white lines (uric acid crystal deposition)” value (“kidneys observed” for short) ([2]; 0.85 g/kg/day by gavage) was 11/14. For the same compound, the kidney weight ([2]; 1.70 g/kg) was 2.507 ± 0.461 g, the serum uric acid ([2]; 1.70 g/kg) was 838.42 ± 3.19 µmol/L and the “kidneys observed” value ([2]; 1.7 g/kg/day by gavage) was 5/14. The kidney weight ([2]; 3.40 g/kg) was 2.207 ± 0.114 g, the serum uric acid ([2]; 3.40 g/kg) was 965.17 ± 215.90 µmol/L and the “kidneys observed” value ([2]; 3.40 g/kg/day by gavage, hydrochloride) was “no difference from that of the normal control group”. The “kidneys observed” value ([2]; 3.40 g/kg/day by gavage, listed as Changsheng No.1, hydrochloride) was “none of 14”, the “blood uric acid content compared with the model control group” value ([2]; all dose groups (0.85, 1.70, 3.40 g/kg)) was “effect of improvement” and the “dissolution of uric acid in the solution” value (21 mg uric acid in 100 ml of 8 mM (pH 7.4) solution, stirring 1 hour) was “completely dissolved”. The “uric acid level at which the complex did not precipitate as crystals” value (after treatment with the solution, extrapolated to blood) was “up to 1260 µmol/L” and the “dissolution of sodium urate crystals” value [3] was “dissolved completely”.
